Measured values from US20220388979A1, “QUINOLINE DERIVATIVES AS PROTEIN KINASE INHIBITORS” (B.C.I. PHARMA, priority 2019, published 2022).
Where two headings read alike, the source gives them in different places.

Assays:
male C57B16J mice = assay: Streptozotocin-induced diabetic neuropathic pain model, Von Frey mechanical threshold (compound 108 study); format: in vivo; details: pregabalin subcutaneous 0.5 mg/mL in phosphate buffer (100 μL/10 g)
Protocol: The experiment has been conducted in 8 weeks old male C57B16J mice (from Charles River). For this study, 10 mice per group have been used.
(§1) Diabetes has been induced by a single IP injection of 200 μg/mL streptozotocin solution (100 μL/10 g). Glycemia has been tested before, D+3 and D+7 post-injection. All injected mice presented blood glucose concentration […] at D+7, and then have been used for analgesic testing of the compounds.
(§2) Compound 108 has been orally administrated at 2, 5 and 10 mg/mL in 0.9% NaCl solution (50 μL/10 g) and pregabalin has been subcutaneously injected at 0.5 mg/mL in phosphate buffer (100 μL/10 g) at D+14 and D+17. A time course measurement at +1 h, +2 h, +4 h and +6 h has been performed after compound administration.
(§3) Mechanical threshold response of mice has been measured with calibrated Von Frey filaments using the up/down method, blind for manipulator. Measurements have been performed before streptozotocin injection and 14 days after.
(§4) Statistical analysis was performed using SigmaPlot 12.5 software. Percentage of maximum possible effect is calculated as follow
(§5) % MPE=[(Test−Prest)/(cut-off−Prest)]*100
(§6) Where cut-off, Test and Pretest values correspond respectively to baseline measure, timepoint post-administration measure and measure before administration.

male C57Bl6J mice = assay: Streptozotocin-induced diabetic neuropathic pain model, Von Frey mechanical threshold (compound 32 study); format: in vivo; details: pregabalin subcutaneous 0.5 mg/mL in phosphate buffer (100 μL/10 g)
Protocol: The experiment has been conducted in 8 weeks old male C57Bl6J mice (from Charles River). For this study, 6 mice per group have been used.
as §1
as §2, with “32” for “108”, “6” for “2, 5 and 10”, “Capryol 90” for “0.9% NaCl”, “D+16.” for “D+17.”
as §3, §4, §5, §6

CSF1R = CSF1R (Homo sapiens, UniProt P07333); assay: HEK-CSF1R-STAT5-Luc reporter assay, M-CSF stimulated; format: cell-based; parameters: host or cells: HEK293T (ATCC CRL-3216); details: for IC50: 600 ng/ml M-CSF, 24 h, luciferase, read-out: HEK-CSF1R-STAT5 IC 50
Protocol: HEK-CSF1R-STAT5-Luc: Exponential growing HEK293T cells (ATCC® CRL-3216™), ectopically expressing human CSF1R receptor (Origene) and five copies of a STAT5 response element (STAT5 RE, promega) that drives transcription of the luciferase reporter were seeded at 5·10^3 per 20 μl of complete DMEM medium. The next day, 2.25 μL of test compound dilution were added to each well and stimulated with 600 ng/ml of M-CSF. The plates were incubated for 24 h at 37° C., 5% CO2. Unstimulated and stimulated cells served as reference for […]. At the end of incubation 25 μl of Steady-Glo® Luciferase Assay System (Promega) were added after 5 min of lysis, luminescence was measured on microplate reader (Envision 2105, Perkinelmer).
(§7) IC50 were measured and experiments were performed at least in duplicate.
(§8) Cell-based assays of compounds CC395-CC397, depicted above, against M-NFS-60 and HEK-CSF1R have been performed following the procedures described in example 29 and 30 and compared with their quinoline analogues 32, 44 and 108.

M-NFS-60 cells = assay: Cell proliferation in M-NFS-60 leukemia cell line (WST-1); format: cell-based; details: for IC50: cell proliferation, 72 h, WST-1, read-out: M-NFS-60 IC 50
Protocol: M-NFS-60: Exponential growing M-NFS-60 cells (ATCC, CRL-1838) were seeded at […]per 200 μl of complete medium with beta-mercaptoethanol and M-CSF (62 ng/mL) or IL34 (500 ng/mL). Twenty μL of test compound dilution were added to each well and the plates were incubated for 72 h at 37° C., 5% CO2. Untreated cells and positive control (0.5% triton X-100, for the last 15 min) served as reference for maximum and minimum viability. At the end of incubation 100 μl of supernatant were removed and replaced by 10 μl of WST-1 solution (Cell Proliferation Reagent WST-1, Roche Applied Science). After 3 h incubation at 37° C., 5% CO2, optical densities were measured at 450 nm and 620 nm for the background on microplate reader (Envision 2105, Perkinelmer).
as §7, §8

[1] = 32 vs CC395, 44 vs CC396, 108 vs CC397

CSF1R, sequence (P07333 20-972): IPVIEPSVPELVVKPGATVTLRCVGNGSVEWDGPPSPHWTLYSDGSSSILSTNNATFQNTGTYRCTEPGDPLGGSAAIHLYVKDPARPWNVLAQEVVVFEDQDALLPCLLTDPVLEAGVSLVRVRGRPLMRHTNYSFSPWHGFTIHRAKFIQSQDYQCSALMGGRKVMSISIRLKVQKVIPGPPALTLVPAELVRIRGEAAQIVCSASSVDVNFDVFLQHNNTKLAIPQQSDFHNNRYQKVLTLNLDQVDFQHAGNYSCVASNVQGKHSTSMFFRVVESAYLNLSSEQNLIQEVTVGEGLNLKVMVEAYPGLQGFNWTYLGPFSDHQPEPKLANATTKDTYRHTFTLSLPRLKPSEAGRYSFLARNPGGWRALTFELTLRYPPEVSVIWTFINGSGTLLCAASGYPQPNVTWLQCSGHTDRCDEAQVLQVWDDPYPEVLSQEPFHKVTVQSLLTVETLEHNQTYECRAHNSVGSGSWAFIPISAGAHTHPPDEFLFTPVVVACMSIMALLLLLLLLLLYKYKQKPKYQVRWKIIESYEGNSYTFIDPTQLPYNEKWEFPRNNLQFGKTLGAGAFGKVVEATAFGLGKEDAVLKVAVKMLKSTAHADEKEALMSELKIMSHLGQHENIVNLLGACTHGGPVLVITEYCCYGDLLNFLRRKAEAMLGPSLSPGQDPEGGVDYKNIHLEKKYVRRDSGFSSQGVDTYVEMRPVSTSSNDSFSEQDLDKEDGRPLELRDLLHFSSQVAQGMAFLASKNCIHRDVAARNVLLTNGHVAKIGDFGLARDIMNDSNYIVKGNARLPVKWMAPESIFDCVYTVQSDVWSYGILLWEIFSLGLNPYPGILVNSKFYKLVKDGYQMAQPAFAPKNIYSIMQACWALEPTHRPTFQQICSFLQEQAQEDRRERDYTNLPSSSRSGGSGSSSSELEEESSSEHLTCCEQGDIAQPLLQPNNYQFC

## CC(C)C[C@H](CN)CC(=O)O [Pregabalin, pregabalin]
Male C57B16J mice; +1 h
  Analgesic effect expressed as % MPE: 76.6 ± 15.4 % MPE
  Analgesic effect expressed as % of baseline: 80.6 ± 12.4 % of baseline
Male C57B16J mice; +2 h
  Analgesic effect expressed as % MPE: 79.5 ± 13.7 % MPE
  Analgesic effect expressed as % of baseline: 85.7 ± 10.7 % of baseline
Male C57B16J mice; +4 h
  Analgesic effect expressed as % MPE: 31.0 ± 17.0 % MPE
  Analgesic effect expressed as % of baseline: 45.6 ± 13.0 % of baseline
Male C57B16J mice; +6 h
  Analgesic effect expressed as % MPE: 10.9 ± 7.5 % MPE
  Analgesic effect expressed as % of baseline: 30.3 ± 4.8 % of baseline
Male C57Bl6J mice; +1 h
  Analgesic effect expressed as % MPE: 80.7 ± 10.8 % MPE
  Analgesic effect expressed as % of baseline: 81.2 ± 7.9 % of baseline
Male C57Bl6J mice; +2 h
  Analgesic effect expressed as % MPE: 84.6 ± 10.6 % MPE
  Analgesic effect expressed as % of baseline: 86.0 ± 9.1 % of baseline
Male C57Bl6J mice; +4 h
  Analgesic effect expressed as % MPE: 33.9 ± 5.8 % MPE
  Analgesic effect expressed as % of baseline: 45.0 ± 5.3 % of baseline
Male C57Bl6J mice; +6 h
  Analgesic effect expressed as % MPE: 5.9 ± 4.3 % MPE
  Analgesic effect expressed as % of baseline: 23.5 ± 2.1 % of baseline

## COc1ccc2c(Oc3cccc(C(=O)NCc4ccncc4)c3C)ccnc2c1 [compound 32, 3-[(7-methoxy-4-quinolyl)oxy]-2-methyl-N-(4-pyridylmethyl)benzamide]
CSF1R; Table 9
  IC50: 26 nM
M-NFS-60 cells; Table 9
  IC50: 34 nM

## COc1ccc2c(Oc3cccc(C(=O)NCc4ccncc4F)c3C)ccnc2c1 [compound 44]
CSF1R; [1]
  fold decrease in IC50 against HEK-CSF1R-STAT5 compared to quinazoline-based comparative compound: 86 fold
CSF1R; Table 9
  IC50: 7 nM
M-NFS-60 cells; [1]
  fold decrease in IC50 against M-NFS-60 compared to quinazoline-based comparative compound: 22 fold
M-NFS-60 cells; Table 9
  IC50: 19 nM

## Cc1c(Oc2ccnc3cc(Cl)ccc23)cccc1C(=O)NCc1ccncc1 [compound 108, 3-[(7-chloro-4-quinolyl)oxy]-2-methyl-N-(4-pyridylmethyl)benzamide]
CSF1R; Table 9
  IC50: 29 nM
M-NFS-60 cells; Table 9
  IC50: 58 nM

## COc1cc2nccc(Oc3cccc(C(=O)NCc4ccncc4)c3)c2cc1OC [compound 398]
CSF1R; Table 10
  IC50: 58 nM
CSF1R; vs CC399
  fold decrease in IC50 against HEK-CSF1R-STAT5 compared to CC399: 61 fold
CSF1R; vs CC400
  fold decrease in IC50 against HEK-CSF1R-STAT5 compared to CC400: 39 fold
CSF1R; vs CC401
  fold decrease in IC50 against HEK-CSF1R-STAT5 compared to CC401: 67 fold
M-NFS-60 cells; Table 10
  IC50: 198 nM
M-NFS-60 cells; vs CC399
  fold decrease in IC50 against M-NFS-60 compared to CC399: 26 fold
M-NFS-60 cells; vs CC400
  fold decrease in IC50 against M-NFS-60 compared to CC400: 21 fold
M-NFS-60 cells; vs CC401
  fold decrease in IC50 against M-NFS-60 compared to CC401: 38 fold
